Here are results for 3 molecules from patent publication US20090048283A1, “Salt of an androgen receptor modulator” (priority 2007, published 2009).

Data set [1] can be described thus: hygroscopicity by symmetric vapor sorption analyzer. The data set is classed as physicochemical. Particulars: 25° C. As to the method: A large quantity of Form A (wet cake of N-(3H-imidazo[4,5-B]pyridin-2-ylmethyl)-2-fluoro-4-methyl-3-oxo-4-aza-5-alpha-androst-1-en-17-beta-carboxamide) was generated by dissolving the crystalline free base (Form E) in pH 3—potassium biphthalate and sulfuric acid mixture—for 10 days at RT. The slurry was filtered and washed with copious amount of D.I. water to wash off residual ions. The wet cake (Form A) was analyzed by x-ray and was then vacuum dried at 37° C. for 3 days. Upon drying, a change in x-ray pattern was observed. The dry cake (Form B) was then analyzed by differential scanning calorimetry (DSC) and thermogravimetry (TG). The TG analysis was performed under a nitrogen flow at a heating rate of 10° C./min, and the DSC was performed under nitrogen flow at a heating rate of 10° C./min in a covered pan. The hygroscopicity of Form B was determined using a symmetric vapor sorption analyzer. The experiment includes an initial drying step at 60° C., followed by measurements of water sorption at 25° C. for percent RH values from 5% to 95% in 10% intervals. The data are reported as percent weight gain as a function of percent RH. Form B was also analyzed for weight percent by liquid chromatography (LCWP) by high performance liquid chromatography (HPLC).

A short description of data set [2]: solid-state form interconversion (variable temperature X-ray, drying). The data set is classed as physicochemical. As to conditions: ambient conditions or drying. An excerpt:
FIG. 5 is an overlay of variable temperature X-ray powder diffraction patterns showing the appearance of the non-isolatable anhydrous Form C of the 2:1 compound I:biphthalate salt.
FIG. 6 is an overlay of X-ray powder diffraction patterns comparing Form B, the dihydrate 2:1 compound I:biphthalate salt, with Form D, the tetrahydrate 2:1 compound I:biphthalate salt. When the wet cake of the 2:1 compound I:biphthalate salt, was air dried at room temperature, Form D was obtained at both T=5 days and T=8-days. The various methods of drying possible, in addition to the size of the sample to be dried, can vary the time needed for drying. The dryness was determined by a stable TG curve showing about a 6% weight loss. Here, the method was to dry in open air, and at both time points (T=5 and T=8 days), the weight loss by TGA was equal to about 6%.
In another embodiment of the invention, anhydrous 2:1 compound I:biphthalate material was non-isolatable at ambient condition, but the hygroscopicity study indicated the presence of one or more hydrated states from 15% to 95% RH. The weight percent of water was 3.4% at 15% RH with a gradual increase to 6.1% at 95%. […] Form D is suspected to be a tetrahydrate biphthalate salt based on its TG data in addition to the hygroscopicity data of Form B. Upon further drying (15 days), the TG and XRD data conform to that of Form B, the dihydrate 2:1 compound I:biphthalate salt.

On to `CN1C(=O)C(F)=C[C@]2(C)C3CC[C@]4(C)[C@@H](C(=O)NCc5nc6cccnc6[nH]5)CC[C@H]4C3CC[C@@H]12` (some centres unmarked) [Form B], for which the “weight percent of water” value in data set [1] (at 15% RH) was 3.4%; in data set [1] (at 95% RH), 6.1%. Further, in data set [2], the “solid-state form stability / conversion” value is recorded as “the most stable form”.

On to `CN1C(=O)C(F)=C[C@]2(C)C3CC[C@]4(C)[C@@H](C(=O)NCc5nc6cccnc6[nH]5)CC[C@H]4C3CC[C@@H]12` (some centres unmarked) [Form C], for which the “solid-state form stability / conversion” value in data set [2] is “readily hydrates to Form B in ambient conditions”.

As for `CN1C(=O)C(F)=C[C@]2(C)C3CC[C@]4(C)[C@@H](C(=O)NCc5nc6cccnc6[nH]5)CC[C@H]4C3CC[C@@H]12` (some centres unmarked) [Form D], the “solid-state form stability / conversion” value in data set [2] was “converts to Form B upon further drying”.
